According to patent US20230203060A1 (GENFLEET THERAPEUTICS (SHANGHAI) INC., priority 2020, published 2023):

Assays:
KRAS G12C = molecular target: T1, KRAS G12C (Homo sapiens, UniProt P01116, G12C); assay: KRAS G12C NEA-HTRF experiment (SOS1-catalyzed displacement of GDP by GTP); assay type: biochemical
T1 construct: purchased Reactionbiology
Summary of the method: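 His-tagged KRAS G12C preloaded with DY647-GDP was preincubated 15 min at 20 °C with compound, then exchanged with SOS1 (0.2 μM working solution) and GTP (200 μM working solution) for 2 h at 20 °C in the dark. HTRF 665/615 nm ratio with anti-His-Tb was normalised to T0 and no-compound controls; IC50 by four-parameter fit.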

[1] = system: phosphorylated ERK downstream of KRAS G12C in MIA PaCa2 cells; assay: Cell p-ERK detection experiment (HTRF) in MIA PaCa2; assay type: cell-based, human; conditions: Homo sapiens, MIA PaCa-2, 2 h, MIA PaCa2 cells, 2 hours with compound, Advance ERK phospho-T202/Y204 HTRF kit; read-out: p-ERK IC50
Summary of the method: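 KRAS G12C-mutant MIA PaCa2 cells (2.5E4 per well, overnight) exposed 2 h to a 3.16-fold compound dilution series at 0.1% DMSO. Lysates probed 4 h with HTRF antibodies to ERK phospho-T202/Y204; inhibition versus DMSO control and blank, IC50 by four-parameter fit.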

T1 sequence (P01116 1-188 isoform P01116-2 G12C): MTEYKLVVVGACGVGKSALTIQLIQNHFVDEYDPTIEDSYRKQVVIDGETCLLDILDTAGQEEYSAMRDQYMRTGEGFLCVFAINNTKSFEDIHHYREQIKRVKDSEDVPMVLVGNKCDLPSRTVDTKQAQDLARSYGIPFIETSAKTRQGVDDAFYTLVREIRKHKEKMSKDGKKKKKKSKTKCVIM

Structure (SMILES)	IC50 (KRAS G12C) [nM]	IC50 [1] [nM]
C=CC(=O)N1CCN2C(=O)c3c(N4CCN(S(C)(=O)=O)C[C@@H]4C)nc(-c4c(O)cccc4F)c(Cl)c3OC[C@H]2C1 [Z318-1, (6aR)-8-acryloyl-1-((S)-2-methyl-4-(methylsulfonyl)piperazin-1-yl)-4-chloro-3-(2-fluoro-6-hydroxyphenyl)-6,6a,7,8,9,10-hexahydro-12H-pyrazino[2,1-c]pyrido[3,4-f][1,4]oxazepin-12-one]	37	87
C=CC(=O)N1CCN2C(=O)c3c(N4CC[C@H](OC)C4(C)C)nc(-c4c(O)cccc4F)c(F)c3OC[C@H]2C1 (single isomer, unassigned) [Z327-2]	64	172
C=CC(=O)N1CCN2C(=O)c3c(N4CCN(C)[C@H](C)[C@@H]4C)nc(-c4c(O)cccc4F)c(Cl)c3OC[C@H]2C1 (single isomer, unassigned) [Z308a-1]	58	71
C=CC(=O)N1CCN2C(=O)c3c(N4CC(O)CC4(C)C)nc(-c4c(O)cccc4F)c(C)c3OC[C@H]2C1 (single isomer, unassigned) [Z336-2]	27	63
C=CC(=O)N1CCN2C(=O)c3c(N4CC[C@H](OC)C4(C)C)nc(-c4c(O)cccc4F)c(Cl)c3OC[C@H]2C1 (single isomer, unassigned) [Z241a-1]	13	33
C=CC(=O)N1CCN2C(=O)c3c(N4Cc5cn(C)nc5C4C)nc(-c4c(O)cccc4F)c(Cl)c3OC[C@H]2C1 (stereo partly shown) [Z291-2]	18	24
C=CC(=O)N1CCN2C(=O)c3c(N4C[C@@H](O)CC4(C)C)nc(-c4c(O)cccc4F)c(F)c3OC[C@H]2C1 (single isomer, unassigned) [Z256-1]	26	20
C=CC(=O)N1CCN2C(=O)c3c(N4CCN(C(C)=O)C[C@@H]4C)nc(-c4c(O)cccc4F)c(Cl)c3OC[C@H]2C1 [Z313-1]	13	23
C=CC(=O)N1CCN2C(=O)c3c(N4CCN(C5CC5)C[C@@H]4C)nc(-c4c(O)cccc4F)c(Cl)c3OC[C@H]2C1 [Z312-1, (6aR)-8-acryloyl-4-chloro-1-((S)-4-cyclopropyl-2-methylpiperazin-1-yl)-3-(2-fluoro-6-hydroxyphenyl)-6,6a,7,8,9,10-hexahydro-12H-pyrazino[2,1-c]pyrido[3,4-f][1,4]oxazepin-12-one]	134	194
C=CC(=O)N1CCN2C(=O)c3c(N4CC[C@@H](OC)C4(C)C)nc(-c4c(O)cccc4F)c(F)c3OC[C@H]2C1 (single isomer, unassigned) [Z327-1]	26	66
C=CC(=O)N1CCN2C(=O)c3c(N4C[C@H](N(C)CCOC)CC4(C)C)nc(-c4c(O)cccc4F)c(Cl)c3OC[C@H]2C1 (single isomer, unassigned) [Z296-2]	39	32
C=CC(=O)N1CCN2C(=O)c3c(N4C[C@H](N5CCOCC5)CC4(C)C)nc(-c4c(O)cccc4F)c(Cl)c3OC[C@H]2C1 (single isomer, unassigned) [Z297-1]	19	11
C=CC(=O)N1CCN2C(=O)c3c(N4CCN(C)C(=O)[C@@H]4C)nc(-c4c(O)cccc4F)c(Cl)c3OC[C@H]2C1 [Z311-1, (6aR)-8-actyloyl-4-chloro-1-((S)-2,4-dimethyl-3-oxopiperazin-1-yl)-3-(2-fluoro-6-hydroxyphenyl)-6,6a,7,8,9,10-hexahydro-12H-pyrazino[2,1-c]pyrido[3,4-f][1,4]oxazepin-12-one]	34	70
C=CC(=O)N1CCN2C(=O)c3c(N4CCN(C)C[C@@H]4C)nc(-c4nc(N)cc(C)c4C(F)(F)F)c(Cl)c3OC[C@H]2C1 [Z328-1, (R)-8-acryloyl-3-(6-amino-4-methyl-3-(trifluoromethyl)pyridin-2-yl)-4-chloro-1-((S)-2,4-dimethylpiperazin-1-yl)-6,6a,7,8,9,10-hexahydro-12H-pyrazino[2,1-c]pyrido[3,4-f][1,4]oxazepin-12-one]	15	15
C=CC(=O)N1CCN2C(=O)c3c(N4C[C@@H](O)CC4(C)C)nc(-c4c(F)ccc(F)c4O)c(F)c3OC[C@H]2C1 (single isomer, unassigned) [Z449-1]	31	151
C=CC(=O)N1CCN2C(=O)c3c(N4C[C@@H](O)CC4(C)C)nc(-c4c(O)ccc(Cl)c4F)c(F)c3OC[C@H]2C1 (single isomer, unassigned) [Z340-1]	27	59
C=CC(=O)N1CCN2C(=O)c3c(N4C[C@@H](CO)CC4(C)C)nc(-c4c(O)cccc4F)c(Cl)c3OC[C@H]2C1 (single isomer, unassigned) [Z240-1]	11	19
C=CC(=O)N1CCN2C(=O)c3c(N4C[C@@](C)(O)CC4(C)C)nc(-c4c(O)cccc4F)c(F)c3OC[C@H]2C1 (single isomer, unassigned) [Z256b-1]	33	43
C=CC(=O)N1CCN2C(=O)c3c(N4C[C@H](OC)CC4(C)C)nc(-c4c(O)cccc4F)c(F)c3OC[C@H]2C1 (single isomer, unassigned) [Z256a-2]	18	17
C=CC(=O)N1CCN2C(=O)c3c(N4C[C@@H](OC)C[C@@H]4C)nc(-c4c(O)cccc4F)c(F)c3OC[C@H]2C1 [Z359-1, (6aR)-8-actyloyl-4-fluoro-3-(2-fluoro-6-hydroxyphenyl)-1-((2S,4S)-4-methoxy-2-methylpyrrolidin-1-yl)-6,6a,7,8,9,10-hexahydro-12H-pyrazino[2,1-c]pyrido[3,4-f][1,4]oxazepin-12-one]	83.8	93
C=CC(=O)N1CCN2C(=O)c3c(N4CC[C@@H](OC)C4(C)C)nc(-c4c(O)cccc4F)c(Cl)c3OC[C@H]2C1 (single isomer, unassigned) [Z241a-2]	5	9

Other lines, results leading:

IC50 (KRAS G12C) [nM]	IC50 [1] [nM]	Structure (SMILES)
36	104	C=CC(=O)N1CCN2C(=O)c3c(N4Cc5cn(C)nc5C4(C)C)nc(-c4c(O)cccc4F)c(Cl)c3OC[C@H]2C1 [Z310, (6aR)-8-acryloyl-1-(2,6,6-trimethylpyrrolo[3,4-c]pyrazol-5(2H,4H,6H)-yl)-4-chloro-3-(2-fluoro-6-hydroxyphenyl)-6,6a,7,8,9,10-hexahydro-12H-pyrazino[2,1-c]pyrido[3,4-f][1,4]oxazepin-12-one]
10	22	C=CC(=O)N1CCN2C(=O)c3c(N4CC(CO)CC4(C)C)nc(-c4c(O)cccc4F)c(Cl)c3OC[C@H]2C1 (stereo partly drawn) [Z240, (6aR)-8-acryloyl-4-chloro-3-(2-fluoro-6-hydroxyphenyl)-1-(4-(hydroxymethyl)-2,2-dimethylpyrrolidin-1-yl)-6,6a,7,8,9,10-hexahydro-12H-pyrazino[2,1-c]pyrido[3,4-f][1,4]oxazepin-12-one]
27	22	C=CC(=O)N1CCN2C(=O)c3c(N4C[C@@H](OC)C[C@@H]4C)nc(-c4c(O)cccc4F)c(Cl)c3OC[C@H]2C1 [Z260a, (6aR)-8-acryloyl-4-chloro-3-(2-fluoro-6-hydroxyphenyl)-1-((2S,4S)-4-methoxy-2-methylpyrrolidin-1-yl)-6,6a,7,8,9,10-hexahydro-12H-pyrazino[2,1-c]pyrido[3,4-f][1,4]oxazepin-12-one]
78	50	C=CC(=O)N1CCN2C(=O)c3c(N4CCN(CCOC)C(C)(C)C4)nc(-c4c(O)cccc4F)c(Cl)c3OC[C@H]2C1 [Z321, (6aR)-8-acryloyl-4-chloro-3-(2-fluoro-6-hydroxyphenyl)-1-(4-(2-methoxyethyl)-3,3-dimethylpiperazin-1-yl)-6,6a,7,8,9,10-hexahydro-12H-pyrazino[2,1-c]pyrido[3,4-f][1,4]oxazepin-12-one]
23	19	C=CC(=O)N1CCN2C(=O)c3c(N4CC(C)(O)CC4(C)C)nc(-c4c(O)cccc4F)c(Cl)c3OC[C@H]2C1 (stereo partly drawn) [Z243, (6aR)-8-acryloyl-4-chloro-3-(2-fluoro-6-hydroxyphenyl)-1-(4-hydroxy-2,2,4-trimethylpyrrolidin-1-yl)-6,6a,7,8,9,10-hexahydro-12H-pyrazino[2,1-c]pyrido[3,4-f][1,4]oxazepin-12-one]
20	26	C=CC(=O)N1CCN2C(=O)c3c(N4CCCC4(C)C)nc(-c4c(O)cccc4F)c(Cl)c3OC[C@H]2C1 [Z22, (6aR)-8-acryloyl-4-chloro-1-(2,2-dimethylpyrrolidin-1-yl)-3-(2-fluoro-6-hydroxyphenyl)-6,6a,7,8,9,10-hexahydro-12H-pyrazino[2,1-c]pyrido[3,4-f][1,4]oxazepin-12-one]
79	62	C=CC(=O)N1CCN2C(=O)c3c(N4CCC(N(C)C)C4(C)C)nc(-c4c(O)cccc4F)c(Cl)c3OC[C@H]2C1 (stereo partly drawn) [Z334, (6aR)-8-acryloyl-4-chloro-1-(3-(dimethylamino)-2,2-dimethylpyrrolidin-1-yl)-3-(2-fluoro-6-hydroxyphenyl)-6,6a,7,8,9,10-hexahydro-12H-pyrazino[2,1-c]pyrido[3,4-f][1,4]oxazepin-12-one]
111	107	C=CC(=O)N1CCN2C(=O)c3c(N4CCN(C)C5(CC5)C4)nc(-c4c(O)cccc4F)c(Cl)c3OC[C@H]2C1 [Z83, (6aR)-8-acryloyl-4-chloro-3-(2-fluoro-6-hydroxyphenyl)-1-(4-methyl-4,7-diazaspiro[2 .5]octan-7-yl)-6,6a,7,8,9,10-hexahydro-12H-pyrazino[2,1-c]pyrido[3,4-f][1,4]oxazepin-12 (6aH)-one]
